Reference: PMC8658795 (2021)

Tested on: DNA duplex (DNA, duplex) CAATCGGATCGAATTCGATCCGATTG
Assay: fluorescent intercalator displacement
Conditions: K+ (50 mM KCl, 10 mM KH2PO4); 1 mM K2EDTA, pH 7.4, room temperature; thiazole orange 0.5 μM displaced (Kf 3 × 10^6 M^-1); duplex 0.25 μM

Kb	Compound
(2.52 ± 0.4) × 10^5 M^-1	O=C(NN1C(=O)c2c(c3c4ccccc4n([C@H]4OC[C@@H](O)[C@H](O)[C@H]4O)c3c3[nH]c4ccccc4c23)C1=O)c1ccccn1
(1.24 ± 0.07) × 10^6 M^-1	NN1C(=O)c2c(c3c4ccccc4n([C@@H]4OC[C@H](O)[C@H](O)[C@H]4O)c3c3[nH]c4ccccc4c23)C1=O
